Our source for the benchmark concentration values is the supplement of paper PMC9151546.

For assay [1], the system named is CHO-K1. The assay can be described thus: benchmark concentration for 30% increase in micronucleus frequency (BMC30); higher = less potent clastogen. How it is done:
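Benchmark concentration modelling (PROAST, Hill/exponential model families) of the 19-concentration flow-cytometric micronucleus assay in CHO-K1 cells, with and without rat liver S9. Only non-cytotoxic and adequate (relative survival >=40%) concentrations were used. BMR was a 30% increase in %MN (BMC30) or a 60% increase in %hypodiploid (BMC60) over control.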

Assay [2] concerns CHO-K1. The assay can be described thus: benchmark concentration for 60% increase in hypodiploid frequency (BMC60); higher = less potent aneugen. The essentials:
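CHO cells were exposed to 19 concentrations (4.50–200 µM; 1% DMSO vehicle) for 24 h at 37 °C without S9, or 3–4 h with Aroclor 1254-induced rat liver S9 then 24 h recovery. Hypodiploid nuclei percentage was measured by flow cytometry; concentrations with relative survival below 40% were excluded, and benchmark response was a 60% increase over DMSO control. The benchmark concentration was fitted in PROAST with Hill and exponential model families.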

Where [3] appears, read: S9 metabolic activation: without S9.
Where [4] appears, read: S9 metabolic activation: with S9.

Structures are written as SMILES. Where a name gives a salt, the structure may show the parent alone.

Turning to `ClC1(Cl)C2(Cl)C3(Cl)C4(Cl)C(Cl)(Cl)C5(Cl)C3(Cl)C1(Cl)C5(Cl)C24Cl` (stereo unspecified) [Mirex], the figures for the benchmark concentration with CHO-K1 [1] (setting [3]) and in the assay with CHO-K1 [2] (setting [3]) were 36 µM and 28 µM, respectively.

On to `O=C1c2c(O)cccc2Cc2cccc(O)c21` [Anthralin], for which the benchmark concentration in the assay with CHO-K1 [1] (setting [3]) was 110 µM; in the assay on CHO-K1 [2] (setting [3]) it was 16 µM.

For the compound `Cc1ccc(O)cc1C` [3,4-Dimethylphenol], the benchmark concentration in the assay on CHO-K1 [1] (setting [3]) stood at 120 µM; in the assay on CHO-K1 [2] (setting [3]), 74 µM.

For the compound `O=C(O)C1=NN(c2ccc(S(=O)(=O)O)cc2)C(=O)C1N=Nc1ccc(S(=O)(=O)O)cc1` (stereo unspecified) [FD&C Yellow 5], the benchmark concentration in the assay with CHO-K1 [1] (setting [4]) was found to be 15 µM; with CHO-K1 [1] (setting [3]), 25 µM; with CHO-K1 [2] (setting [3]) it was 47 µM.

For `O=C(c1ccccc1)c1ccccc1` [Benzophenone], the benchmark concentration in the assay on CHO-K1 [1] (setting [3]) is 59 µM; in the assay on CHO-K1 [2] (setting [3]), 28 µM.

For the compound `CCOC(=O)c1ccccc1C(=O)OCC` [Diethyl phthalate], the benchmark concentration in the assay on CHO-K1 [1] (setting [3]) was found to be 100 µM; in the assay on CHO-K1 [2] (setting [3]), 99 µM.

For the compound `c1cc2ccc3cccc4ccc(c1)c2c34` [Pyrene], the benchmark concentration in the assay with CHO-K1 [1] (setting [4]) came to 40 µM; with CHO-K1 [2] (setting [3]), 110 µM.

In the case of `C=CC(=O)NCNC(=O)C=C` [N,N'-Methylenebisacrylamide], the benchmark concentration in the assay with CHO-K1 [1] (setting [3]) came to 44 µM; with CHO-K1 [2] (setting [3]), 62 µM.

As to `c1ccc(C2CO2)cc1` (stereo unspecified) [Styrene oxide], the benchmark concentration in the assay on CHO-K1 [1] (setting [3]) stood at 96 µM; in the assay with CHO-K1 [2] (setting [3]), 19 µM.

Turning to `NC(=O)N/N=C/c1ccc([N+](=O)[O-])o1` [Nitrofurazone], the benchmark concentration came to 24 µM in the assay on CHO-K1 [1] (setting [3]) and 68 µM in the assay on CHO-K1 [2] (setting [3]).

As for `ClCC(Cl)CCl` [1,2,3-Trichloropropane], the benchmark concentration in the assay on CHO-K1 [1] (setting [3]) amounted to 46 µM; with CHO-K1 [2] (setting [3]), 72 µM.

For the compound `C=CCOC(=O)c1ccccc1C(=O)OCC=C` [Diallyl phthalate], the figures for the benchmark concentration in the assay on CHO-K1 [1] (setting [4]) and in the assay on CHO-K1 [2] (setting [3]) were 61 µM and 65 µM, respectively.

With `CCC(C)c1ccccc1O` (stereo unspecified) [2-(Butan-2-yl)phenol], the benchmark concentration was 23 µM in the assay on CHO-K1 [1] (setting [4]), 30 µM with CHO-K1 [2] (setting [4]) and 170 µM with CHO-K1 [2] (setting [3]).

Consider `c1ccc(/N=N/c2ccccc2)cc1` [Azobenzene], for which the benchmark concentration was 32 µM with CHO-K1 [1] (setting [4]), 37 µM in the assay on CHO-K1 [2] (setting [4]) and 87 µM with CHO-K1 [2] (setting [3]).

As to `C#C[C@]1(O)CC[C@H]2[C@@H]3CCc4cc(O)ccc4[C@H]3CC[C@@]21C` [17alpha-Ethinylestradiol], the figures for the benchmark concentration in the assay on CHO-K1 [1] (setting [4]) and in the assay with CHO-K1 [2] (setting [3]) were 58 µM and under 4.5 µM, respectively.

Turning to `O=C1CCCCCN1` [Caprolactam], the results for the benchmark concentration with CHO-K1 [1] (setting [3]) and in the assay with CHO-K1 [2] (setting [3]) were 44 µM and 150 µM, respectively.

As for `NS(=O)(=O)c1cc2c(cc1Cl)NCNS2(=O)=O` [Hydrochlorothiazide], the benchmark concentration with CHO-K1 [1] (setting [4]) came out at 29 µM; in the assay with CHO-K1 [2] (setting [3]) it was 73 µM.

With `Cc1cc(=O)[nH]c(=S)[nH]1` [6-Methyl-2-thiouracil], the benchmark concentration with CHO-K1 [1] (setting [3]) was under 4.5 µM; with CHO-K1 [2] (setting [4]), 83 µM; in the assay with CHO-K1 [2] (setting [3]) it was 57 µM.

In the case of `CN(C)c1ccc(N=NS(=O)(=O)O)cc1` [Fenaminosulf], the benchmark concentration worked out at 27 µM in the assay with CHO-K1 [1] (setting [3]) and 41 µM in the assay on CHO-K1 [2] (setting [3]).

For `O=C(O)C(F)(F)C(F)(F)C(F)(F)C(F)(F)C(F)(F)C(F)(F)C(F)(F)C(F)(F)C(F)(F)F` [PFDA], the benchmark concentration with CHO-K1 [1] (setting [4]) and in the assay on CHO-K1 [2] (setting [3]) was 73 µM in each case.

Consider `Nc1ccn([C@@H]2O[C@H](CO)[C@@H](O)[C@@H]2O)c(=O)n1` [Cytarabine hydrochloride], for which the benchmark concentration turned out to be 5.9 µM with CHO-K1 [1] (setting [4]) and 27 µM in the assay on CHO-K1 [2] (setting [4]).

For the compound `COc1ccccc1N` [2-Anisidine], the benchmark concentration in the assay on CHO-K1 [1] (setting [3]) came to 46 µM; in the assay with CHO-K1 [2] (setting [3]), 120 µM.

In the case of `CN(C)c1ccc(Cc2ccc(N(C)C)cc2)cc1` [4,4'-Methylenebis(N,N-dimethylaniline)], the benchmark concentration in the assay on CHO-K1 [1] (setting [4]) is 56 µM; in the assay with CHO-K1 [2] (setting [4]), 75 µM; in the assay on CHO-K1 [2] (setting [3]), 38 µM.

Take `Oc1ccc2ccccc2c1N=Nc1ccccc1` [C.I. Solvent Yellow 14]: the benchmark concentration worked out at 23 µM with CHO-K1 [1] (setting [3]), 91 µM in the assay on CHO-K1 [2] (setting [4]) and 11 µM in the assay on CHO-K1 [2] (setting [3]).

For `CCc1ccc(CCOc2ccc(CC3SC(=O)NC3=O)cc2)nc1` (stereo unspecified) [Pioglitazone hydrochloride], the benchmark concentration with CHO-K1 [1] (setting [3]) was under 4.5 µM; in the assay with CHO-K1 [2] (setting [3]), 7.6 µM.

For the compound `OCc1ccccc1` [Benzyl alcohol], the results for the benchmark concentration with CHO-K1 [1] (setting [3]) and in the assay on CHO-K1 [2] (setting [3]) were 43 µM and 93 µM, respectively.

Consider `c1ccc(NNc2ccccc2)cc1` [1,2-Diphenylhydrazine], for which the benchmark concentration with CHO-K1 [1] (setting [4]) stood at 22 µM; in the assay with CHO-K1 [1] (setting [3]), 46 µM; in the assay with CHO-K1 [2] (setting [4]), 45 µM; in the assay on CHO-K1 [2] (setting [3]), 68 µM.

For the compound `Cc1ccccc1N` [2-Methylaniline], the results for the benchmark concentration with CHO-K1 [1] (setting [3]) and in the assay with CHO-K1 [2] (setting [3]) were 21 µM and 49 µM, respectively.

For `NC(=Nc1ccccc1)Nc1ccccc1` [1,3-Diphenylguanidine], the results for the benchmark concentration in the assay with CHO-K1 [1] (setting [3]) and in the assay with CHO-K1 [2] (setting [3]) were 78 µM and 67 µM, respectively.
